Blank lines part the entries; values can stand above or below the compound they belong to.
Experiments:
[1] = Thiol-triggered H2S release in PBS containing CA (MB assay); details: for GSH-triggered H2S release: PBS containing GSH and CA
Protocol: To evaluate thiol effects on COS/H2S release from cyclic perthiocarbamate compound embodiments, compound 306a (50 μM) was incubated in PBS (pH 7.4, 10 mM) containing Cys or GSH (up to 4.0 mM) and CA (25 μg/mL) and H2S release was monitored by MB assay. […] Additionally, other thiol triggers, such as cysteine, homocysteine, and N-acetyl cysteine, were combined with compound 306a to evaluate if they would trigger the compound to release H2S.
In this example, GSH-triggered H2S release from compound 900 was evaluated. […] To improve the H2S releasing capacity of ATB-346, compound 900 was made by reacting ATB-346 with chlorocarbonyl sulfenyl chloride reagent (see Scheme 9). The resultant compound 900 was then added to PBS containing GSH and CA.
Release of H2S from compound 404c (25 μM) in the presence of L-cysteine or reduced glutathione (GSH) (500 μM, 20 equiv.) measured by the spectrophotometric methylene blue assay, with results shown in FIG. 17.
In this example, additional compounds, such as cyclic sulfenyl thiocarbamate compounds 306a-306e, were evaluated for their ability to release H2S upon exposure to a biological thiol, cysteine.
With the hybrid NSAID in hand, COS/H2S release in aqueous buffer was evaluated.

[2] = Cys-triggered fluorescence turn on in PBS; details: compound 10 μM, Cys 100 μM, PBS pH 7.4
Protocol: Representative Measurement of Fluorescence Intensity of Compound Embodiments—A freshly prepared compound 202a stock solution (3.00 μL, 10.0 mM in DMSO) was added to 3.00 mL of PBS (Ph 7.40, 10.0 Mm) containing CA (25.0 μg/mL) in a quartz fluorescence cuvette. A Cys stock solution (10.0 mM) was then added to reach the desired working concentration. The reaction solution was excited at 490 nm and the fluorescence intensity (500-650 nm) was measured and recorded using a Quanta Master 40 spectrofluorometer.
In this example, it was determined that Cys-induced compound 202a activation can be monitored by tracking the fluorescein formation and accompanied fluorescence response, and, in some embodiments, the reaction proceeds more quickly when higher concentrations of thiols are added. Time-dependent fluorescence spectra (FIG. 2A) and UV-vis spectra (FIG. 2B) of a particular compound embodiment, compound 202a, (10 μM) in PBS buffer (pH 7.4, 10 mM) containing Cys (100 μM) and CA (25 μg/mL) were obtained using a fluorescence spectrometer. […] Fluorescein formation was also confirmed by UV-vis spectroscopy under the identical conditions (FIG. 2B). Specifically, a freshly prepared compound 202a stock solution (3.00 μL, 10.0 mM in DMSO) was added to 3.00 mL of PBS (pH 7.40, 10.0 mM) containing CA (25.0 μg/mL) in a quartz UV cuvette. A Cys stock solution (30.0 μL, 10.0 mM in H2O) was then added. The absorbance (350-600 nm) was measured for 3 hours using a Cary 100 spectrometer. A Cys-dependent fluorescence enhancement was observed when treating compound 202a (10 μM) with increasing concentrations of Cys (1-20 equiv.), indicating a high sensitivity of compound 202a towards Cys. […] In addition, to confirm the H2S delivery from compound 202a, compound 202a (10 μM) was treated with Cys (100 μM) in PBS containing CA (25 μg/mL) and quantified H2S release using the MB assay. […] Optical measurement conditions were as follows: […], and slit width=0.3 mm.

[3] = Spectroscopic properties in PBS buffer (pH 7.4, 10 mM); format: physicochemical; details: PBS (pH 7.4, 10 mM)
Protocol: In this example, the spectroscopic properties in PBS buffer (pH 7.4, 10 mM) of compounds 202a-202d, and control compound 204. Compounds 202a-202c and control compound 204 were not absorptive in the visible region and are all these compounds were not fluorescent because the fluorescein unit is locked in the closed lactone form.

RAW 264.7 cells = experiment: Anti-inflammatory activity: LPS-induced NO2- accumulation (Griess); format: cell-based; details: pretreatment 25 μM for 2 hours, then LPS 0.500 μg/mL 24 hours
Protocol: Representative Procedure for Determining Anti-Inflammatory Activities of Compound Embodiments and Control Compounds—Macrophage RAW 264.7 cells were seeded in a 24-well plate (5×10^5 cells/well) containing 0.500 mL of DMEM and incubated at 37° C. under 5% CO2 for 24 hours. The confluent cells were washed with PBS and incubated with either compound 202a (0-25.0 μM), or GYY4137 (25.0 μM) at 37° C. for 2 hours. Compounds were then removed by washing cells with PBS and these pretreated cells were incubated in FBS-free DMEM containing LPS (0.500 μg/mL) for 24 hours. NO2— levels were measured by using a Griess Reagent Kit.
RAW 264.7 cells were incubated with compound 202a (0-25 μM) for 2 hours, followed by a 24-hour incubation with lipopolysaccharide (LPS, 0.5 μg/mL) to trigger the inflammatory response. The inflammation event usually results in the NO generation, which can be monitored by measuring nitrite (NO2—) accumulation.

HeLa cells = experiment: Cellular imaging of H2S delivery in HeLa cells with C7-Az probe; format: cell-based; details: compound 50 μM, C7-Az 50 μM, 30 minutes
Protocol: HeLa cells were then plated in poly-D-lysine coated plates (MatTek) containing 2.00 mL of DMEM and incubated at 37° C. under 5% CO2 for 24 hours. The confluent cells were washed with PBS and then co-incubated with NucRed nuclear dye (2 drops), C7-Az (50.0 μM), and compound 202a (50.0 μM) for 30 minutes. Prior to imaging, the cells were washed with PBS and bathed in 2.00 mL of PBS. Cell imaging was performed on a Leica DMi8 fluorescent microscope. […] To confirm that compound 202a was not cytotoxic, confluent HeLa cells were incubated in FBS-free DMEM containing vehicle (0.5% DMSO), and compound 202a (6.25-50.0 μM) for 30 minutes in a 96-well plate. The culture media were then removed and 100 μL of FBS-free DMEM containing 10% CCK-8 solution was added to each well, and cells were incubated for 2 hours at 37° C. The absorbance at 450 nm was measured by using a microplate reader (see FIG. 8). The cell viability was measured and normalized to the vehicle group. The results are expressed as mean t SEM (n=6).

Compound: COc1ccc2cc(C(C)C(=O)Oc3ccc(C(N)=S)cc3)ccc2c1 (stereo not shown) [ATB-346, reference compound]
GSH-triggered H2S release [1]: not detected

Φ [3]: 0.11 ± 0.01
ε [3]: 27,300 ± 2500 M^−1cm^−1
λem [3]: 514 nm
λmax [3]: 449 nm
Compound: O=C(Oc1ccc2c(c1)Oc1cc(O)ccc1C21OC(=O)c2ccccc21)SSCc1ccccc1 (stereo not shown) [Compound 202d]
fluorescence response to Cys [2]: minimal fluorescence enhancement

Compound: O=C(Oc1ccc2c(c1)Oc1cc(OC(=O)SCc3ccccc3)ccc1C21OC(=O)c2ccccc21)SCc1ccccc1 [Compound 204]
fluorescence response to Cys [2]: No fluorescence response
anti-inflammatory activity at 25 μM (NO2− production) (RAW 264.7 cells): none of these species exhibited anti-inflammatory activities
C7-Az (H2S probe) fluorescence in HeLa cells (HeLa cells): failed to turn on the fluorescence

Compound: O=c1ssc(=O)n1-c1ccc(Cl)cc1 [Compound 404c]
COS released on reaction with thiols ([1]; compound 25 μM, L-cysteine or GSH 500 μM (20 equiv.), CA, MB assay): two equivalents of COS

Compound: COc1ccc2cc(C(C)C(=O)Oc3ccc(-c4nc(=O)ss4)cc3)ccc2c1 (stereo not shown) [Compound 900]
GSH-triggered H2S release [1]: promising H2S release was observed
thiol-triggered H2S release in buffer with CTAB ([1]; compound 50 μM, PBS pH 7.4, CTAB 1.0 mM, CA 25 μg/mL, Cys or GSH 1.0 mM): thiol-triggered H2S release was immediately observed

Compound: SCc1ccccc1 [benzyl mercaptan]
anti-inflammatory activity at 25 μM (NO2− production) (RAW 264.7 cells): none of these species exhibited anti-inflammatory activities
